Assay results as given in PMC4599001, “Selective Irreversible Inhibition of Neuronal and Inducible Nitric-oxide Synthase in the Combined Presence of Hydrogen Sulfide and Nitric Oxide” (The Journal of Biological Chemistry, 2015).
“And” between values parts separate entries of the source, which are not always exact repeats. Equal entries are not always repeated. “Also recorded” adds a separate entry of the source. Where two headings read alike, the source gives them in different places.

What was measured:
[1] = target: T1, nNOS (Homo sapiens, UniProt P29475); conditions: for ActH2S, specific activity (citrulline formation) / Inhibition / vNO^H2S, NO formation rate: 0.5 mM H2S
[2] = test system: nNOS; conditions: read-out: IC50, inhibition of nNOS, cited from earlier work
[3] = cited from earlier work; for t1/2 of NO release: ref 35
[4] = target: T2, eNOS (Homo sapiens, UniProt P29474); format: biochemical; conditions: for ActH2S, specific activity (citrulline formation) / Inhibition / vNO^H2S, NO formation rate: 0.5 mM H2S
Target sequence in this assay (P29474 2-1203): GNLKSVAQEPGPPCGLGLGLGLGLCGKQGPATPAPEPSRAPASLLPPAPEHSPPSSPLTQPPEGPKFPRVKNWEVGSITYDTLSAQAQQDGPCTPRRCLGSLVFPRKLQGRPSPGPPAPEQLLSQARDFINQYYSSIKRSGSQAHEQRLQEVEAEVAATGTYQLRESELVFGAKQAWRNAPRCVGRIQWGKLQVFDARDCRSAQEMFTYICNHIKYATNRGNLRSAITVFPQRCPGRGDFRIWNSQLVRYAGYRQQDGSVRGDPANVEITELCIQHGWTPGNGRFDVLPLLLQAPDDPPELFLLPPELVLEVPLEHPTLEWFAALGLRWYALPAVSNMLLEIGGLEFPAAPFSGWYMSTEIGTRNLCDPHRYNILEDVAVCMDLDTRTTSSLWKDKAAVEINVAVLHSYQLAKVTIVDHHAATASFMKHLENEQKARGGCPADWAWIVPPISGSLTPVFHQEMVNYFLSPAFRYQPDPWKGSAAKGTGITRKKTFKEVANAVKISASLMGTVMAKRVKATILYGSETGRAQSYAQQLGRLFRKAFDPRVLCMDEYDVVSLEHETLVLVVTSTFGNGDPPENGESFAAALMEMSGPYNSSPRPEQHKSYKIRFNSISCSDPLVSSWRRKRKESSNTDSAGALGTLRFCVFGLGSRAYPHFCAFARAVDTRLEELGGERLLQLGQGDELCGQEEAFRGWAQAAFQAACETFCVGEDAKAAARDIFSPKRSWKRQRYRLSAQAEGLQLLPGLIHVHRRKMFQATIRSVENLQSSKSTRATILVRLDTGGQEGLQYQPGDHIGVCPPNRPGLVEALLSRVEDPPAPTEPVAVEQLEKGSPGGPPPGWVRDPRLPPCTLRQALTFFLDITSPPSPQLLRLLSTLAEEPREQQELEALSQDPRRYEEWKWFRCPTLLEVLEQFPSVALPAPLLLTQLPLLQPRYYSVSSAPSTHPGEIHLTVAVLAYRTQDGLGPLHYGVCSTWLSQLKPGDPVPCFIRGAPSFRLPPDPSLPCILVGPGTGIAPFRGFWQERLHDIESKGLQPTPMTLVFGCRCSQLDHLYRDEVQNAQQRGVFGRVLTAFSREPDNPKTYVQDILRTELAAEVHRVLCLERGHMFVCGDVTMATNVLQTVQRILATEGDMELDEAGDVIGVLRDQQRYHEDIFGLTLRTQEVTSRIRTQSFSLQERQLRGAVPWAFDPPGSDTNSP

[5] = 37 °C; cited from earlier work
[6] = target: T1, nNOS; test: NADPH oxidation by nNOS (340 nm); format: biochemical
[7] = target: T1, nNOS; format: biochemical
[8] = target: T2, eNOS
[9] = target: T1, nNOS
[10] = target: T1, nNOS; format: binding
[11] = target: T3, mouse macrophage iNOS (Mus musculus, UniProt P29477); format: biochemical; conditions: pH 7.4; read-out: IC50, citrulline formation by iNOS
T3 construct: made in house; host or cells: Escherichia coli

[12] = target: T2, eNOS; test: NADPH oxidation by eNOS (340 nm); format: biochemical; conditions: +Arg, +BH4, without Na2S

T1 sequence (P29475 whole entry): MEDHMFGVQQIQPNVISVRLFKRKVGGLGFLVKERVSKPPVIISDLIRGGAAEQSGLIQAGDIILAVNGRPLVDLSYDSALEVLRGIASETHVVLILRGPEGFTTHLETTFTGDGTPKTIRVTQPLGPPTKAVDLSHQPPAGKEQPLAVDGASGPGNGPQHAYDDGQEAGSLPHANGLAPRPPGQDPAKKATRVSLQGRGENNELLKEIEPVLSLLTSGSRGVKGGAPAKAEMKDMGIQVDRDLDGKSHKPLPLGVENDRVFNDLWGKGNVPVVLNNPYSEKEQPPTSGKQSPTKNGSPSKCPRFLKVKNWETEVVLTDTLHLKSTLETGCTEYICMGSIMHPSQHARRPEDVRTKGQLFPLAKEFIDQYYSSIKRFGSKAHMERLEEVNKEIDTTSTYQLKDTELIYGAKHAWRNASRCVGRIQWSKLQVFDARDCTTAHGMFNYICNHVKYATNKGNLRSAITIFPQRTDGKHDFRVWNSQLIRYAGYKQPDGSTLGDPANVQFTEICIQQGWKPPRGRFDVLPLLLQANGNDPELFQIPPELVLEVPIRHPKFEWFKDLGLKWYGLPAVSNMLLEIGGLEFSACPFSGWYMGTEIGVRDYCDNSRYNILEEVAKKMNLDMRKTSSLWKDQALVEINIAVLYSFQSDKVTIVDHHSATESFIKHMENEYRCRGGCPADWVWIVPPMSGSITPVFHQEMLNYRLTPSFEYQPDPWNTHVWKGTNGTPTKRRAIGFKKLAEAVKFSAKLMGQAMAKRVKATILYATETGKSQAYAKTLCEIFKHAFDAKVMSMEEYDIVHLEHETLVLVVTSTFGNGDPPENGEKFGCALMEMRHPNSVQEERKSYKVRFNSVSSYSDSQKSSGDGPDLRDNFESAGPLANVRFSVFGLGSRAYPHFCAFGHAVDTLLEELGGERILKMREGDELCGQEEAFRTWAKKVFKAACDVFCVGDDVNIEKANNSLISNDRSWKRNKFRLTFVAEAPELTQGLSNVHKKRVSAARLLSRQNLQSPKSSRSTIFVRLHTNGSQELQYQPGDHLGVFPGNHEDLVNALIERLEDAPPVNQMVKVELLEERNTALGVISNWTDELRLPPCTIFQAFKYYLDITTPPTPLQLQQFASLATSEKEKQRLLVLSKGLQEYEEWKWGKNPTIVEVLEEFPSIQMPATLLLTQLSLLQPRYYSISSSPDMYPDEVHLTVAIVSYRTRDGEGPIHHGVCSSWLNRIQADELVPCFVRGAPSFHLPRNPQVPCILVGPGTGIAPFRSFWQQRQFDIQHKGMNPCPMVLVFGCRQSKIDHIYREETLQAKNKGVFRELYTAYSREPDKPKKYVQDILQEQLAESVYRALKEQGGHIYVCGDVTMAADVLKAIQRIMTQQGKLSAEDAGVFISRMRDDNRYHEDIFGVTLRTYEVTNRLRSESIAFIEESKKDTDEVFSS
T3 sequence (P29477 whole entry): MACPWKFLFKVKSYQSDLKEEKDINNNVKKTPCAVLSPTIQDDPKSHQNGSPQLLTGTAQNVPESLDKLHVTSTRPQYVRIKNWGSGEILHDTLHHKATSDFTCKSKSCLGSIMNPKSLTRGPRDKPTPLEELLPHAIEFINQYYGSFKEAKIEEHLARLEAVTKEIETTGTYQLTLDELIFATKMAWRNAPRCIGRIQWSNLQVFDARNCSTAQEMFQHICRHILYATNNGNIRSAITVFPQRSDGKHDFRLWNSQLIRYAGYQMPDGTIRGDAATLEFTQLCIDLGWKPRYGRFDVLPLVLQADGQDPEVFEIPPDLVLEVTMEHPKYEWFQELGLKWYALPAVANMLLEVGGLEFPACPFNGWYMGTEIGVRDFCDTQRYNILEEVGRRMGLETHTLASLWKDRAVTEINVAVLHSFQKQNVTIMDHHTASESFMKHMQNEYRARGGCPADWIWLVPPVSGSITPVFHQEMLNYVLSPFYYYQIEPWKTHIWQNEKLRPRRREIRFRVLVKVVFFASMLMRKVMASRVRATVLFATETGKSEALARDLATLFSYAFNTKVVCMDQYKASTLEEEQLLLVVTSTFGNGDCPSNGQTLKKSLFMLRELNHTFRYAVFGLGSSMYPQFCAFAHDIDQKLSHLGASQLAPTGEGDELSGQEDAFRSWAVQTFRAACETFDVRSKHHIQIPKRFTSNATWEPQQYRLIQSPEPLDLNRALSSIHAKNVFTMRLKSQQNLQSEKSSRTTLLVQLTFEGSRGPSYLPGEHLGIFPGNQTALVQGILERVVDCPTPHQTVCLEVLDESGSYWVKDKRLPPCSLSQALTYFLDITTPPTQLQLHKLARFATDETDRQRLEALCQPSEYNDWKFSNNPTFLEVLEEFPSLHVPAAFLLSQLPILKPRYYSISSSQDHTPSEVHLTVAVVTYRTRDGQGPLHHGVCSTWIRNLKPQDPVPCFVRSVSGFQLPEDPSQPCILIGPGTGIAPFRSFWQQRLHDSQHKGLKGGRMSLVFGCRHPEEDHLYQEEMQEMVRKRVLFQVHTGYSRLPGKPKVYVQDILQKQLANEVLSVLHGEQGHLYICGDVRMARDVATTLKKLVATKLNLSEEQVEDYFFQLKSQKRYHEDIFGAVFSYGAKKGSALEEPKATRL

[Na+].[Na+].[O-][N+]([O-])=NO [Angeli's salt, disodium diazen-1-ium-1,2,2-triolate]
Reversal of inhibition by thiols ([1]; 10 mM GSH or 2 mM DTT present): completely reversed in the presence of thiols | IC50 ([1]; read-out: IC50, citrulline formation by nNOS, Angeli's salt as HNO donor, 50 mM TEA pH 7.4, 10 min, 37 °C): 190 µM

O[C@@H](CS)[C@@H](O)CS [DTT]
IC50 ([2]; ref 16): 13200 µM | IC50 ([2]; ref 27): 160 µM

C1COCCN1.COc1ccc(P(=S)(S)N2CCOCC2)cc1 (centres unmarked) [GYY4137]
t½ of H2S release ([3]; ref 34): ~415 min | IC50 ([1]; read-out: Apparent IC50, citrulline formation by nNOS): 2200 µM

S [H2S, hydrogen sulfide]
ActH2S, specific activity (citrulline formation) ([4]; eNOS 2.0 μg/ml): 98 ± 12 nmol/mg/min | Inhibition ([4]; eNOS 2.0 μg/ml): 24 ± 16% | vNO^H2S, NO formation rate ([4]; eNOS 2.0 μg/ml): 0.20 ± 0.02 µM/min | ActH2S, specific activity (citrulline formation) ([4]; eNOS 10.0 μg/ml): 134 ± 16 nmol/mg/min | Inhibition ([4]; eNOS 10.0 μg/ml): 16 ± 12% | vNO^H2S, NO formation rate ([4]; eNOS 10.0 μg/ml): 1.34 ± 0.16 µM/min | ActH2S, specific activity (citrulline formation) ([4]; eNOS 15.0 μg/ml): 146 ± 19 nmol/mg/min | Inhibition ([4]; eNOS 15.0 μg/ml): 5 ± 14% | vNO^H2S, NO formation rate ([4]; eNOS 15.0 μg/ml): 2.2 ± 0.3 µM/min | ActH2S, specific activity (citrulline formation) ([4]; eNOS 30.0 μg/ml): 136 ± 38 nmol/mg/min | Inhibition ([4]; eNOS 30.0 μg/ml): −6 ± 35% | vNO^H2S, NO formation rate ([4]; eNOS 30.0 μg/ml): 4.1 ± 1.1 µM/min | pKa of the H2S/HS− equilibrium [5]: 6.76 | ActH2S, specific activity (citrulline formation) ([1]; nNOS 0.5 μg/ml): 53 ± 26 nmol/mg/min | Inhibition ([1]; nNOS 0.5 μg/ml): 86 ± 7% | vNO^H2S, NO formation rate ([1]; nNOS 0.5 μg/ml): 0.026 ± 0.013 µM/min | ActH2S, specific activity (citrulline formation) ([1]; nNOS 2.0 μg/ml): 31 ± 8 nmol/mg/min | Inhibition ([1]; nNOS 2.0 μg/ml): 92 ± 2% | vNO^H2S, NO formation rate ([1]; nNOS 2.0 μg/ml): 0.062 ± 0.016 µM/min | ActH2S, specific activity (citrulline formation) ([1]; nNOS 10.0 μg/ml): 24 ± 2 nmol/mg/min | Inhibition ([1]; nNOS 10.0 μg/ml): 92 ± 1% | vNO^H2S, NO formation rate ([1]; nNOS 10.0 μg/ml): 0.24 ± 0.02 µM/min | ActH2S, specific activity (citrulline formation) ([1]; nNOS 15.0 μg/ml): 29 ± 2 nmol/mg/min | Inhibition ([1]; nNOS 15.0 μg/ml): 91 ± 1% | vNO^H2S, NO formation rate ([1]; nNOS 15.0 μg/ml): 0.44 ± 0.03 µM/min | IC50 ([6]; Arg and/or BH4 omitted, no NO (span over conditions), read-out: IC50, reversible inhibition of nNOS by H2S alone): 100 to 600 µM | Decrease of nNOS activity after dilution ([7]; preincubation with 0.5 mM Na2S under turnover conditions (+CaM), 150-fold dilution): ~70% | nNOS activity after dilution ([7]; preincubation with 0.5 mM Na2S, CaM omitted during preincubation): activity was not affected

[Na+].[Na+].[S-2] [Na2S, sodium sulfide]
Dimer/monomer ratio of eNOS [8]: not affected by Na2S at all | Effect on eNOS activity [4]: hardly affected | Effect on citrulline formation by eNOS ([4]; pH 7.4): hardly affected at all; also recorded: only marginally affected | Effect of thiols on IC50 of inhibition of citrulline formation [1]: none of these thiols had any impact on IC50 values | nNOS activity blocked [1]: ~90% | pKa from plot of IC50 against pH [1]: 7.310 ± 0.014 | IC50 ([1]; read-out: IC50, citrulline formation by nNOS): 23 µM | IC50 ([1]; read-out: IC50, citrulline formation by nNOS, pH 6): ~15 µM and 15 µM | IC50 ([1]; read-out: IC50, citrulline formation by nNOS, pH 7.4): ~24 µM and 24 µM and 31 µM | IC50 ([1]; read-out: IC50, citrulline formation by nNOS, pH 8): ~83 µM and 83 µM | Dimeric enzyme, gel filtration [9]: ~55% | Extent of spectral transition to thiol complex [10]: approximately 50% | Decrease of nNOS activity after dilution [7]: approximately 70% | Reversal of inhibition by thiols [7]: none of these thiols restored the activity | nNOS activity after dilution [7]: not affected | IC50 [11]: ~79 µM and 79 µM

O=C([O-])[C@@H]1CCCN1[N+]([O-])=NO.O=C([O-])[C@@H]1CCCN1[N+]([O-])=NO.[Na+].[Na+] [PROLI/NO, 1-(hydroxy-NNO-azoxy)-L-proline, disodium salt]
t1/2 of NO release [3]: 0.017 to 0.033 min | IC50 ([6]; +Arg, −BH4, in the absence of Na2S, read-out: IC50, NADPH oxidation by nNOS): ~80 µM | IC50 ([6]; +Arg, −BH4, in the presence of 10 μM Na2S, read-out: IC50, NADPH oxidation by nNOS): ~10 µM | IC50 [12]: 100 µM

NCCCNCCCCN(CCCN)/[N+]([O-])=N/O [SPER/NO, (Z)-1-[N-[3-aminopropyl]-N-[4-(3-aminopropylammonio)butyl]amino]diazen-1-ium-1,2-diolate]
t1/2 of NO release [3]: ~30 min | IC50 ([6]; absence of BH4, with Na2S, after 10 min, read-out: Apparent IC50, potentiation of the inhibitory effect of Na2S on NADPH oxidation by nNOS): 106 µM
